The values that follow are results of earlier work, collected in paper PMC2074382 (British Journal of Cancer, 1996).

Where a name gives a salt, the structure may show the parent alone.

The data set concerns HT-29 and SW-48 colon, PC-3 prostate, MX-1 breast, H460 lung, SKOV3 ovarian and KB epidermoid carcinomas xenografts. The note with it: HT-29, SW-48, PC-3, MX-1, H460, SKOV3, KB; ref Emerson et al., 1993, 1994, 1995; cited from earlier work.

Consider `CC[C@@]1(O)C(=O)OCc2c1cc1n(c2=O)Cc2c-1nc1cc3c(cc1c2CN1CCN(C)CC1)OCCO3` [GI147211, [7 - (methylpiperazinomethylene) - 10,11 - ethylene-dioxy-20(S)] camptothecin dihydrochloride], for which the “cytotoxicity against xenografts of human cancers” value is on record as “cytotoxicity against several xenografts of human cancers”.
